Measured values as given in paper PMC11259170, “Small-molecule probe for IBD risk variant GPR65 I231L alters cytokine signaling networks through positive allosteric modulation” (Science Advances, 2024).
Read-outs that look alike come from different tables or passages of the source.

Tests used:
hGPR65 = biological target: T1, hGPR65 (Homo sapiens, UniProt Q8IYL9); test: cAMP detection in HeLa expression cell line, hGPR65; type: cell-based; settings: for Emax: HeLa, read-out: hGPR Max Activity %; for cAMP production relative to BRD2813, hGPR65: pH 7.2
T1 construct: expressed in transfected cells; host or cells: HeLa (ATCC CCL-2), lentiviral transduction, pLX317
T1 sequence (Q8IYL9 whole entry): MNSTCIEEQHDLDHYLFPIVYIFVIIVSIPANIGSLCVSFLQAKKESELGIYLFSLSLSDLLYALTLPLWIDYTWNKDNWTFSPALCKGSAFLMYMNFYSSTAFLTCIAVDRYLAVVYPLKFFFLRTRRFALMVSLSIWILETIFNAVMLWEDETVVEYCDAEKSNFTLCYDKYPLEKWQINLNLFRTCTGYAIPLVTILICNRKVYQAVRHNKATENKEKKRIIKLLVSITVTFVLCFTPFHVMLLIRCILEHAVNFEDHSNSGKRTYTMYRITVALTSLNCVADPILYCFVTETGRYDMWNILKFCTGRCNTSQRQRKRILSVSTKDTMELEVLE
Procedure, shortened: (§1)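 Lentivirally transduced HeLa, V5-tagged GPCR, puromycin 3 μg/ml. 1500 cells/well, stimulation buffer pH 7.2, compound (10 mM DMSO stock), 30 min RT. Lyse, detection reagents 1 h dark RT. TR-FRET cAMP kit, ex 337, em 620/665.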

mGPR65 = biological target: T2, mGPR65 (Mus musculus, UniProt Q61038); test: cAMP detection in HeLa expression cell line, mGPR65; type: cell-based; settings: for Emax: HeLa, read-out: mGPR Max Activity %; for cAMP production relative to BRD2813, mGPR65: pH 7.2
T2 construct: expressed in transfected cells; host or cells: HeLa (ATCC CCL-2), lentiviral transduction, pLX317
T2 sequence (Q61038 whole entry): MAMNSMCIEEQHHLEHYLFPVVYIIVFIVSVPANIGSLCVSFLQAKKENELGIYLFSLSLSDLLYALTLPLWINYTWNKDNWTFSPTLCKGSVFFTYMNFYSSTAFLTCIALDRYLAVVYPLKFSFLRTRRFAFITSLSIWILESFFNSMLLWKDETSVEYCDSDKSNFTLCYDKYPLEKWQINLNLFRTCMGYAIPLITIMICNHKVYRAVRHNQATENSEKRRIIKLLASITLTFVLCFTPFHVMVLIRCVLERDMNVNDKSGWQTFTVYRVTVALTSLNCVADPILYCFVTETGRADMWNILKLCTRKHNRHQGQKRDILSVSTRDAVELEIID
Procedure, shortened: as §1

[1] = test system: GFP-expressing HeLa cells; test: cAMP detection in HeLa expression cell line, GFP control; type: cell-based, human; settings: Homo sapiens, HeLa; for Emax: relative to 100uM forskolin (100%) and DMSO (0%), read-out: GFP Max Activity %
Procedure: HeLa stable expression cell lines were produced by lentiviral transduction. Briefly, lentiviral plasmids for each GPCR with a C-terminal V5 Tag ([…]) were made in a pLX317 backbone using competent Escherichia coli (New England Biolabs, C3050H). Lenti-X 293 T (Takara, 632810) cells were transfected with the lentiviral plasmids to produce virus. Low-passage HeLa cells (American Type Culture Collection, CCL-2) were then transduced with lentivirus. After 48 hours, HeLa cells were cultured under selection with puromycin (3 μg/ml) and allowed to recover and expand before storing stocks in liquid nitrogen.
cAMP was measured in cells using the Lance Ultra cAMP Kit. HeLa cells were cultured under puromycin (3 μg/ml) selection. One day before the experiment, cells were seeded in T75 flasks and allowed to adhere overnight. On the day of the experiment, cells were washed twice with Dulbecco’s PBS and lifted using prewarmed 1× versene solution (Gibco, 15040066). Cells were counted in HBSS (Gibco, 14025092) and then resuspended in stimulation buffer prepared according to the manufacturer’s instructions and adjusted to pH 7.2 using 1 M sodium hydroxide. Cells were added to the plate at a density of 1500 cells per well in white opaque 384-well assay ready microplates containing 100 nl of 10 mM compound in DMSO. Cells were stimulated for 30 min at RT, then lysed and incubated with detection reagents for 1 hour in the dark at RT. Plates were read on BMG Labtech PHERAstar FSX (excitation, 337 nm; emission, 620 and 665 nm). Data analysis was performed using GraphPad Prism.

[2] = test system: GPR65 KO HeLa cells + pLX empty vector; test: cAMP detection, GPR65 KO HeLa + empty pLX vector (null control); type: cell-based, human; settings: HeLa GPR65 KO + pLX, pH 7.1, 30 min, normalized to DMSO and 100 μM forskolin
Procedure: The Lance Ultra cAMP Kit (PerkinElmer, TRF0264) was used for cAMP detection, and included the following reagents: ULight anti-cAMP antibody, Eu-cAMP tracer, 7.5% BSA Stabilizer solution, and cAMP detection buffer. Stimulation buffer was prepared as described by the kit manufacturer as follows: Hanks buffered saline solution (HBSS, Life Technologies, 14025-126) containing 0.5 mM IBMX (3-isobutyl-1-methylxanthine, Sigma-Aldrich, I7018) and buffered with 1 M Hepes (15630-080). Stimulation buffer was then adjusted to pH 7.1 using 12 N HCl. HeLa cells were lifted using Versene and then suspended at 2.5 × 10^5 cells/ml in stimulation buffer. Cells were then plated at 20 μl per well (5000 cells per well) in white, opaque OptiPlate 384-well MicroPlates (PerkinElmer, 6007299) using a Thermo Fisher Scientific Combi liquid dispenser. Compounds, stored at 5 mM in DMSO for the primary screen, or in a range of concentrations from 39 μM to 20 mM for dose curves, were transferred by the CyBio CyBi-Well Vario pin transfer tool with 100-nl pins (V&P FP1NS50H, 50-nl slot, 0.457-mm diameter, hydrophobic coated), into each assay well, 100 nl per well for a final assay concentration of 25 μM for the primary screen, or 195 nM to 100 μM for dose curves. Assay plates were then incubated at RT for 30 min. Eu-cAMP tracer was diluted 1:33 into detection buffer and the final solution then distributed into assay wells, 5 μl per well. ULight anti-cAMP antibody was diluted 1:100 into detection buffer, then distributed into assay wells, also 5 μl per well. Assay plates were then incubated at RT in the dark for 1 hour. Eu-cAMP tracer and Förster resonance energy transfer (FRET) emissions were then read using a PerkinElmer EnVision Multimode plate reader (ENVISION21040010), exciting each well at 320 nm [UV2 (TRF) 320 filter] and reading emissions at 615 nm (Europium 615 filter) and 665 nm (APC665 filter). Data analysis was performed using Genedata Screener and GraphPad Prism.
HeLa KO cell lines were generated using the px330 plasmid CRISPR system as previously described ([18]). Briefly, HeLa cells were transfected with a Cas9 vector containing a gene-specific single-guide RNA to target the GPR65 coding exon. Forty-eight to 72 hours after transfection, single clones were obtained through limiting dilution and then sequenced to validate the KO. Reconstituted cell lines were produced by transducing KO cells with empty lentivirus or lentivirus containing hGPR65 or mGPR65. After 48 hours, cells were treated with puromycin (3 μg/ml; InvivoGen, ant-pr-1) and resistant cells were used in experiments.

[3] = second pair, relative to 100uM forskolin (100%) and DMSO (0%)
[4] = 1st hGPR column pair, NA = no activity, read-out: hGPR EC50
[5] = 2nd hGPR column pair, NA = no activity, read-out: hGPR EC50
[6] = 1st hGPR column pair, relative to 100uM forskolin (100%) and DMSO (0%), NA = no activity
[7] = 2nd hGPR column pair, relative to 100uM forskolin (100%) and DMSO (0%), NA = no activity
[8] = 1st mGPR column pair, NA = no activity, read-out: mGPR EC50
[9] = 2nd mGPR column pair, NA = no activity, read-out: mGPR EC50
[10] = 2nd mGPR column pair, relative to 100uM forskolin (100%) and DMSO (0%), NA = no activity
[11] = relative to 100uM forskolin (100%) and DMSO (0%), NA = no activity
[12] = 1st GFP column pair, NA = no activity
[13] = 2nd GFP column pair, NA = no activity
[14] = hGPR EC50 (uM), NA = no activity
[15] = mGPR EC50 (uM), 2nd mGPR column pair, NA = no activity
[16] = mGPR EC50 (uM), NA = no activity

| SMILES | EC50 (hGPR65; [4]) [µM] | EC50 (hGPR65; [5]) [µM] | Emax (hGPR65; [6]) [%] | Emax (hGPR65; [7]) [%] | EC50 (mGPR65; [8]) [µM] | EC50 (mGPR65; [9]) [µM] | Emax (mGPR65; [10]) [%] | Emax (mGPR65; [11]) [%] | EC50 [1, 12] [µM] | Emax [1, 12] [%] | EC50 [1, 13] [µM] | Emax [1, 13] [%] | also measured |
| --- | --- | --- | --- | --- | --- | --- | --- | --- | --- | --- | --- | --- | --- |
| Cc1ccc(NC(=O)c2cnn3c(O)cc(-c4ccc(C5CCCCC5)cc4)nc23)cc1 [BRD5881] | – | – | – | – | – | – | – | – | – | – | – | – | Emax (hGPR65; first pair, relative to 100uM forskolin (100%) and DMSO (0%)): 39.5%; Emax (hGPR65; [3]): 95.7%; EC50 (hGPR65; SAR cAMP assay, first EC50/Max pair of hGPR columns, read-out: hGPR EC50): 3.88 µM; EC50 (hGPR65; SAR cAMP assay, second EC50/Max pair of hGPR columns, read-out: hGPR EC50): 90.6 µM; Emax (mGPR65; [3]): 9.83%; EC50 (mGPR65; SAR cAMP assay, second EC50/Max pair of mGPR columns, read-out: mGPR EC50): 0.579 µM; EC50 ([1]; SAR cAMP assay, second EC50/Max pair of GFP control columns): 0.453 µM; Emax ([1]; second pair): 1.64% |
| COc1cccc(-c2cc(O)n3ncc(C(=O)Nc4ccc(C)cc4)c3n2)c1 [BRD6202] | 1.3 | 1.75 | 72.3 | 73.6 | 0.378 | 0.451 | 58.8 | 63.3 | 3.17 | 1.48 | 0.195 | 3.9 | – |
| CCS(=O)(=O)c1ccc(NC(=O)c2cnn3c(O)cc(-c4ccc(COC)cc4)nc23)cc1 [BRD7157] | – | – | – | – | 10.7 | 14.6 | 19.6 | 64.9 | – | – | 16.7 | 6.57 | EC50 (hGPR65; NA = no activity, read-out: hGPR EC50): 27.2 µM; hGPR Max Activity (hGPR65; [11]): 17.41%; EC50 (mGPR65; 3rd mGPR column pair, NA = no activity, read-out: mGPR EC50): 4.47 µM; mGPR Max Activity (mGPR65; [11]): 44.17% |
| Cc1ccc(NC(=O)c2cnn3c(O)cc(-c4ccc(N5CCN(C)CC5)cc4)nc23)cc1 [BRD7215] | – | – | 48.2 | 57.7 | – | – | 48.7 | 57.8 | – | – | 63.5 | 7.18 | EC50 (hGPR65; [14]): 2.74 µM; EC50 (hGPR65; hGPR EC50, NA = no activity): 4.39 µM; cAMP production relative to BRD2813, hGPR65 (hGPR65): decreasing cAMP production; EC50 (mGPR65; [15]): 1.1 µM; EC50 (mGPR65; [16]): 0.161 µM; cAMP production relative to BRD2813, mGPR65 (mGPR65): increasing activity |
| CCCc1cc(-c2cc(O)n3ncc(C(=O)Nc4ccc(C)cc4)c3n2)no1 [BRD8472] | 1.25 | 0.79 | 67.7 | 51.3 | 0.103 | 0.397 | 55.4 | 59.4 | 24.9 | 2.75 | – | – | – |
| Cc1ccc(NC(=O)c2cnn3c(O)cc(-c4ccc(N5CCC(=O)CC5)cc4)nc23)cc1 [BRD8536] | 4.05 | 5.53 | 65.7 | 63.9 | 0.98 | 2.81 | 52.9 | 63.5 | 0.801 | 1.86 | – | – | – |
| Cc1ccc(NC(=O)c2cnn3c(O)cc(-c4ccc(-c5ccccc5)cc4)nc23)cc1 [BRD8716] | 0.171 | 0.284 | 79.2 | 72.4 | 0.368 | 0.528 | 33.1 | 40.2 | 7.3 | 1.95 | 5.6 | 1.51 | potency and total cAMP production relative to BRD2813 (hGPR65; receptor not given): improved potency but had little effect on total cAMP production |
| COCc1ccc(-c2cc(O)n3ncc(C(=O)Nc4ccccc4)c3n2)cc1 [BRD9876] | – | – | 81.6 | 79.5 | – | – | 34.4 | 45.3 | 3.62 | 1.96 | 25.7 | 3.97 | EC50 (hGPR65; [14]): 8.06 µM; EC50 (hGPR65; hGPR EC50, NA = no activity): 12 µM; cAMP production relative to BRD2813, hGPR65 (hGPR65): detrimental to potency; EC50 (mGPR65; [15]): 4.76 µM; EC50 (mGPR65; [16]): 4.06 µM; cAMP production relative to BRD2813, mGPR65 (mGPR65): decreased potency |
| O=C(CSc1ncnc2sc3c(c12)CCCC3)Nc1nccs1 [BRD-K40136431-001-02-4] | – | – | – | – | – | – | – | – | – | – | – | – | EC50 [2]: > 100 µM |
| CC(C)CCn1c(Sc2nc3ccccc3s2)nc2c1c(=O)[nH]c(=O)n2C [BRD-K74743357-001-08-3] | – | – | – | – | – | – | – | – | – | – | – | – | EC50 [2]: 77.4 µM |
